The structures appear in SMILES notation.

This assay has as its target T1, aryl hydrocarbon receptor (AHR) (Homo sapiens, UniProt P35869).
T1 sequence (P35869 11-848): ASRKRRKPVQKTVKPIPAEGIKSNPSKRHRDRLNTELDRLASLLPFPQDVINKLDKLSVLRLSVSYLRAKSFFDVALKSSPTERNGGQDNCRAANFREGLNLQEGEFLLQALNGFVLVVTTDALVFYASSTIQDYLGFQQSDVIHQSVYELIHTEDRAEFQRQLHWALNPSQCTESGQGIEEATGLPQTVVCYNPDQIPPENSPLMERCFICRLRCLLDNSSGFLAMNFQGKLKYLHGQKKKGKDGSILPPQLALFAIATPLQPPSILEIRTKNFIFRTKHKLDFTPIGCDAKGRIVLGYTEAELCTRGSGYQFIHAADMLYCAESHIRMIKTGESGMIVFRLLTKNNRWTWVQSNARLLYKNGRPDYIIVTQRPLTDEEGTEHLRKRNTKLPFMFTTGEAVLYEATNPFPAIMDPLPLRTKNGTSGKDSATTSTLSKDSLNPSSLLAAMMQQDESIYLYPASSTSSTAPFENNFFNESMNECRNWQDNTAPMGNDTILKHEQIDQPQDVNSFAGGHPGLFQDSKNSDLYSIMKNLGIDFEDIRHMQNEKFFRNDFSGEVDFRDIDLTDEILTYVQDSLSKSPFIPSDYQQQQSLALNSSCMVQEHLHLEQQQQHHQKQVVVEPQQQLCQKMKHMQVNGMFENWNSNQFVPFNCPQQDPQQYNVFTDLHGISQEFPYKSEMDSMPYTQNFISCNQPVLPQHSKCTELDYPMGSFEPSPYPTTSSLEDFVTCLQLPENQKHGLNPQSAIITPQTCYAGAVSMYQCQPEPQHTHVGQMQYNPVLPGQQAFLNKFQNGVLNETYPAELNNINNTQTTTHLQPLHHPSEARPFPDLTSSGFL
Kind of assay: DRE-Luciferase reporter high-throughput screen (AHR antagonist, VAF347-activated).
Text: HepG2 hepatocellular carcinoma cells were transfected with a dioxin-response element (DRE) Firefly luciferase reporter construct. Luciferase transcription was activated with the aryl hydrocarbon receptor (AHR) agonist, VAF347. Addition of an AHR antagonist results in inhibition of the luciferase transcription and a loss of signal in the assay.
HepG2, a hepatocellular carcinoma cell line, was transfected with the dioxin-response element Firefly luciferase reporter construct using the TransIT-transfection system. Prior to transfection, HepG2 cells (Sigma) were cultured at 90% confluency in Eagle's Modified Essential Medium (Sigma)+2 mM Glutamine (Sigma), +1^% Non Essential Amino Acids (Sigma)+10% Fetal Bovine Serum (Hyclone) and harvested and counted (Biorad TC20 cell counter). OptilMEM serum-free media and TransIT (Mirus) were mixed for transfection in 150 mm dishes by adding 240 μL Transit to 3.0 mL OptiMEM, vortexing briefly to mix, and incubating at room temperature for 20 minutes. The DNA mixture was prepared by adding 80 μg plasmid (pGudLuc6.1 plasmid, Garrison et al., (1996) Fundam. Appl. Toxicol., 30, 194-203), inverting to mix, and incubating at room temperature for 30 minutes. 30×10^6 HepG2 cells were seeded in 30 mL media and 3.3 mL of the DNA, OptiMEM, and TransIT mixture was added dropwise to the plate. The plate was mixed by rocking and incubated at 37° C./5% CO2 overnight. The next day, cells were harvested by aspirating media, washing once with sterile phosphate buffered saline (PBS, Gibco), trypsinzing with 0.05% Trypsin (Corning) and harvesting cells with culture medium, and freezing with Cell Freezing Media (Gibco) at 5 50×10^6 cells/vial in 1 mL/vial.
Transiently-transfected frozen HepG2 cells with DRE-Luciferase, were thawed in a 37° C. water bath and resuspended in complete media. 4 μL cells at 15,000 cells per well was transferred into the wells of a 1536-well Alphaplate assay plate (PerkinElmer) using TEMPEST liquid dispenser. The plate was centrifuged at 1000 rpm for 1 minute. 30 nL of the controls (1 μM (S)-2-(6-((2-(1H-indol-3-yl)ethyl)amino)-2-(5-fluoropyridin-3-yl)-9H-purin-9-yl)propan-1-ol or 100% DMSO) were transferred to the assay plate using the Pin Tool on BRAVO. 1 μL of VAF347 (15 nM final concentration) in complete media was added to the wells using TEMPEST. The plate was centrifuged at 1000 rpm for 1 minute and incubated at 37° C./5% CO2 overnight. After incubation, the plate was removed from the incubator and brought to room temperature. 2 μL of room temperature Steady-Glo luciferase detection reagent (Promega) was added to the wells with TEMPEST. The plate was centrifuged at 2000 rpm for 1 minute, sealed with clear plastic seal and kept at room temperature for 15 minutes prior to measuring luminescence on ENVISION.
Approximately 166,000 compounds were screened in 132 1536-well plates in the luciferase reporter gene assay at a final concentration of 12 μM. […] Each compound was tested at 0.1 μM, 1.0 μM, and 10 μM in the DRE luciferase assay and Cell Titer Glo cytotoxicity assay (Promega). […] 512 compounds were selected for 10-point dose-response in the AHR luciferase reporter assay and the Cell Titer Glo cytotoxicity assay.
Turning to `Cc1cc(C)c2c(NCc3ccccc3F)[nH]nc2n1` [122A], the IC50 is 1000 to 2000 nM.
In turn, `CSc1nc2cc(-c3ccc(Cl)cc3)nn2c(N)c1C#N` [69B] showed an IC50 of less than 200 nM.
`Cc1cn2cc(-c3ccc(F)cc3)nc2s1` [compound 67] registered an IC50 of 500 to 1000 nM.
The result for `Cc1cc2ccccc2n2c(SCC(=O)Nc3ccccc3F)nnc12` [187A] reads more than 2000 nM; that for `O=C(CN1CCCCCC1)Nc1sc2c(c1C(=O)Nc1ccc(Br)cc1)CCC2` [42A], 1000 to 2000 nM.
As to `CSc1nccc(NC(=O)c2cccc(C(F)(F)F)c2)n1` [14A], the IC50 is more than 2000 nM.
As for `CCOC(=O)Nc1ccc(-n2ccc(C)n2)cc1` [57B], the figure is 1000 to 2000 nM; as for `CN(C)C(=O)Oc1ccc(-c2cn3cc(C(F)(F)F)ccc3n2)cc1` [compound 103], 500 to 1000 nM.
Turning to `c1ccc(-c2nc(COc3cccc(-n4cnnn4)c3)cs2)cc1` [54A], the IC50 lay within 1000 to 2000 nM.
In the case of `CC(=O)Nc1cc(Cl)c(-c2ccc([N+](=O)[O-])o2)c(Cl)c1` [101B], the IC50 fell in the range of 200 to 500 nM.
`COc1ccc(-c2cc(=O)c3cc(OC(=O)C(C)(C)C)ccc3o2)cc1` [110B] yielded a concentration for half-maximal inhibition (IC50) of 200 to 500 nM.
`Cc1csc(Nc2nc(N)c(C(=O)Nc3cc(Cl)ccc3F)o2)n1` [compound 37] yielded an IC50 of 500 to 1000 nM.
`O=C(Cc1cccc(F)c1)Nc1ccc(-c2nccs2)cc1` [compound 62] showed an IC50 of 500 to 1000 nM.
With `O=c1ccc2ccc(OCc3ccc(F)cc3Cl)cc2o1` [111B], the IC50 lay in the range of 200 to 500 nM.
Regarding `FC(F)(F)c1ccc(CSc2nccc(-c3cccnc3)n2)cc1` [46B], the concentration for half-maximal inhibition (IC50) lay within 200 to 500 nM.
`Cc1c(C(=O)OC2CCCC2)[nH]c2c1C(=O)CCC2` [179A] yielded an IC50 of more than 2000 nM.
As for `CCC(=O)Nc1ccc(Cl)c(NC(=O)c2ccc(OC(C)C)cc2)c1` [6B], the figure is 500 to 1000 nM; as for `C#CCOc1ccc(C(=O)Nc2cccc(OC)c2)cc1` [1A], more than 2000 nM; as for `CCCN(C(=O)C1CC1)c1nnc(-c2ccc(Cl)cc2)s1` [144A], 1000 to 2000 nM.
Take `Cc1nc(-c2ccc(OC3=CC=C4N=NC(C(F)(F)F)N4N3)cc2)no1` (centres unmarked) [124A]: the half-inhibitory concentration (IC50) is more than 2000 nM.
The molecule `N#Cc1c(N)c(-c2ccc(F)cc2)cn2c1nc1ccccc12` [120B] yielded an IC50 of 500 to 1000 nM.
For `Clc1ccc(-c2csc(-c3ccc4c(c3)CCO4)n2)s1` [38B], the IC50 lay in the range of 500 to 1000 nM.
As for `Cc1[nH]c2c(C(=O)Nc3cccc(CN4CCOC4=O)c3)cccc2c1C` [40A], the concentration for half-maximal inhibition (IC50) was 1000 to 2000 nM.
The result for `CCCc1cc(C(=O)N2CCC(C3CCCCC3)C2)[nH]n1` (centres unmarked) [106A] reads 1000 to 2000 nM.
`Cc1csc(-c2ccc(NC(=O)NCc3cc(C)on3)cc2)n1` [62A] yielded an IC50 of more than 2000 nM.
`COc1cccc2c1cc1c(O)nnc(C)n12` [185A] showed an IC50 of more than 2000 nM.
The result for `O=C(Nc1cc(=O)c2ccccc2o1)c1ccc(Cl)cc1` [45A] reads more than 2000 nM.
As for `CCCCCc1ccc2c(C#N)c(OC)ccc2c1` [117B], the figure is 1000 to 2000 nM; as for `COc1ccc(Nc2cc(C)nc(-c3ccccc3O)n2)cc1` [47B], 1000 to 2000 nM; as for `O=C(Nc1ccc2[nH]c(C(F)(F)F)nc2c1)c1cccn(Cc2ccccc2)c1=O` [compound 49], less than 200 nM.
The result for `CCNC(=O)c1sc2ncc(C(=O)c3ccc(C)cc3)n2c1C` [compound 66] reads 200 to 500 nM; that for `CC(C)NC(=O)c1nc(-c2cn(-c3ccccc3)cn2)n2ccccc12` [101A], 1000 to 2000 nM.
Consider `CCOc1ccc(NC(=O)c2c(C)coc2C)cc1` [11B], for which the concentration for half-maximal inhibition (IC50) was in the range of 500 to 1000 nM.
The result for `N#Cc1c(N)nc2c(oc3ccccc32)c1-c1ccccc1` [123B] reads 1000 to 2000 nM.
In turn, `COc1cc(OC)c(NC(=O)c2[nH]nc3c2CSc2ccccc2-3)cc1Cl` [compound 34] returned an IC50 of 200 to 500 nM.
`COc1ccc(Nc2nn(-c3ccccc3)c3c2C(=O)CCC3)cc1` [177A] gave a half-inhibitory concentration (IC50) of 1000 to 2000 nM.
As for `Cc1ccc(N2CCN(C(=O)Nc3cc(F)cc(F)c3)CC2)nn1` [78A], the figure is 1000 to 2000 nM; as for `Fc1ccc(-c2cn(-c3ccc4nnc(C(F)(F)F)n4n3)cn2)cc1` [compound 108], 500 to 1000 nM.

A word on the IC50: it is the concentration needed to halve the response being measured. Low readings indicate greater potency in that assay, high ones weaker potency in that assay.
